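Dose response: 5 concentrations. Exposure: 48 h. Format: 96-well plates. Endpoint: linear interpolation; highest concentration if not reached. GI50 marks 50% less growth. TGI marks complete inhibition of growth.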
Columns and labels:
Test in all cases: NCI anticancer screen, dose series, 48 h
786-0 renal = tested on: 786-0 renal
A498 renal = tested on: A498 renal
ACHN renal = tested on: ACHN renal
BT-549 breast = tested on: BT-549 breast
CAKI-1 renal = tested on: CAKI-1 renal
CCRF-CEM leukemia = tested on: CCRF-CEM leukemia
COLO 205 colon = tested on: COLO 205 colon
DU-145 prostate = tested on: DU-145 prostate
EKVX NSCLC = tested on: EKVX NSCLC
HCC-2998 colon = tested on: HCC-2998 colon
HCT-116 colon = tested on: HCT-116 colon
HCT-15 colon = tested on: HCT-15 colon
HL-60(TB) leukemia = tested on: HL-60(TB) leukemia
HOP-62 NSCLC = tested on: HOP-62 NSCLC
HOP-92 NSCLC = tested on: HOP-92 NSCLC
HS 578T breast = tested on: HS 578T breast
HT29 colon = tested on: HT29 colon
IGROV1 ovarian = tested on: IGROV1 ovarian
K-562 leukemia = tested on: K-562 leukemia
KM12 colon = tested on: KM12 colon
LOX IMVI melanoma = tested on: LOX IMVI melanoma
M14 melanoma = tested on: M14 melanoma
MALME-3M melanoma = tested on: MALME-3M melanoma
MCF7 breast = tested on: MCF7 breast
MDA-MB-231 breast = tested on: MDA-MB-231 breast
MDA-MB-435 = tested on: MDA-MB-435
MDA-MB-468 breast = tested on: MDA-MB-468 breast
MOLT-4 leukemia = tested on: MOLT-4 leukemia
NCI-H226 lung = tested on: NCI-H226 lung
NCI-H23 lung = tested on: NCI-H23 lung
NCI-H460 lung = tested on: NCI-H460 lung
NCI-H522 lung = tested on: NCI-H522 lung
NCI/ADR-RES ovarian = tested on: NCI/ADR-RES ovarian
OVCAR-3 ovarian = tested on: OVCAR-3 ovarian
OVCAR-4 ovarian = tested on: OVCAR-4 ovarian
OVCAR-5 ovarian = tested on: OVCAR-5 ovarian
PC-3 prostate = tested on: PC-3 prostate
RPMI-8226 leukemia = tested on: RPMI-8226 leukemia
RXF 393 renal = tested on: RXF 393 renal
SF-268 CNS = tested on: SF-268 CNS
SF-295 CNS = tested on: SF-295 CNS
SF-539 CNS = tested on: SF-539 CNS
SK-MEL-2 melanoma = tested on: SK-MEL-2 melanoma
SK-MEL-28 melanoma = tested on: SK-MEL-28 melanoma
SK-MEL-5 melanoma = tested on: SK-MEL-5 melanoma
SK-OV-3 ovarian = tested on: SK-OV-3 ovarian
SN12C renal = tested on: SN12C renal
SNB-19 CNS = tested on: SNB-19 CNS
SNB-75 CNS = tested on: SNB-75 CNS
SR leukemia = tested on: SR leukemia
SW-620 colon = tested on: SW-620 colon
T-47D breast = tested on: T-47D breast
TK-10 renal = tested on: TK-10 renal
U251 CNS = tested on: U251 CNS
UACC-257 melanoma = tested on: UACC-257 melanoma
UACC-62 melanoma = tested on: UACC-62 melanoma
UO-31 renal = tested on: UO-31 renal

COc1cc2c3c(n(CCCN4CCC[C@@H]4CO)c(=O)c2cc1OC)-c1cc2c(cc1C3=O)OCO2
GI50 (786-0 renal): 647 nM
TGI (786-0 renal): 1810 nM
GI50 (A498 renal): 14 µM
TGI (A498 renal): 28.3 µM
GI50 (ACHN renal): 293 nM
TGI (ACHN renal): 1320 nM
GI50 (BT-549 breast): 1370 nM
TGI (BT-549 breast): 15.5 µM
GI50 (CAKI-1 renal): 344 nM
TGI (CAKI-1 renal): 4.96 µM
GI50 (CCRF-CEM leukemia): 27 nM
TGI (CCRF-CEM leukemia): 2260 nM
GI50 (COLO 205 colon): 1230 nM
TGI (COLO 205 colon): 5.27 µM
GI50 (DU-145 prostate): 223 nM
TGI (DU-145 prostate): 1710 nM
GI50 (EKVX NSCLC): 1440 nM
TGI (EKVX NSCLC): 2880 nM
GI50 (HCC-2998 colon): 1400 nM
TGI (HCC-2998 colon): 2690 nM
GI50 (HCT-116 colon): 451 nM
TGI (HCT-116 colon): 2050 nM
GI50 (HCT-15 colon): 1260 nM
TGI (HCT-15 colon): 2580 nM
GI50 (HL-60(TB) leukemia): 871 nM
TGI (HL-60(TB) leukemia): 3.11 µM
GI50 (HOP-62 NSCLC): 191 nM
TGI (HOP-62 NSCLC): 1680 nM
GI50 (HOP-92 NSCLC): 4.27 µM
TGI (HOP-92 NSCLC): 9.63 µM
GI50 (HS 578T breast): 4.57 µM
TGI (HS 578T breast): 13 µM
GI50 (HT29 colon): 1070 nM
TGI (HT29 colon): 2410 nM
GI50 (IGROV1 ovarian): 1310 nM
TGI (IGROV1 ovarian): 2640 nM
GI50 (K-562 leukemia): 1270 nM
TGI (K-562 leukemia): > 100 µM
GI50 (KM12 colon): 1300 nM
TGI (KM12 colon): 2910 nM
GI50 (LOX IMVI melanoma): 226 nM
TGI (LOX IMVI melanoma): 1610 nM
GI50 (M14 melanoma): 473 nM
TGI (M14 melanoma): 1910 nM
GI50 (MALME-3M melanoma): 1370 nM
TGI (MALME-3M melanoma): 2830 nM
GI50 (MCF7 breast): 41.1 nM
TGI (MCF7 breast): 1450 nM
GI50 (MDA-MB-231 breast): 1380 nM
TGI (MDA-MB-231 breast): 2750 nM
GI50 (MDA-MB-435): 1220 nM
TGI (MDA-MB-435): 2540 nM
GI50 (MDA-MB-468 breast): 318 nM
TGI (MDA-MB-468 breast): 1280 nM
GI50 (MOLT-4 leukemia): < 23.3 nM
TGI (MOLT-4 leukemia): 4.13 µM
GI50 (NCI-H226 lung): 771 nM
TGI (NCI-H226 lung): 2620 nM
GI50 (NCI-H23 lung): 207 nM
TGI (NCI-H23 lung): 1520 nM
GI50 (NCI-H460 lung): 84.1 nM
TGI (NCI-H460 lung): 1300 nM
GI50 (NCI-H522 lung): 3.05 µM
TGI (NCI-H522 lung): 20.8 µM
GI50 (NCI/ADR-RES ovarian): 356 nM
TGI (NCI/ADR-RES ovarian): 2210 nM
GI50 (OVCAR-3 ovarian): 1350 nM
TGI (OVCAR-3 ovarian): 2910 nM
GI50 (OVCAR-4 ovarian): 1700 nM
TGI (OVCAR-4 ovarian): 3.33 µM
GI50 (OVCAR-5 ovarian): 1460 nM
TGI (OVCAR-5 ovarian): 2800 nM
GI50 (PC-3 prostate): 1180 nM
TGI (PC-3 prostate): 2940 nM
GI50 (RPMI-8226 leukemia): 688 nM
TGI (RPMI-8226 leukemia): 3.95 µM
GI50 (RXF 393 renal): 966 nM
TGI (RXF 393 renal): 2560 nM
GI50 (SF-268 CNS): 404 nM
TGI (SF-268 CNS): 2280 nM
GI50 (SF-295 CNS): 91.3 nM
TGI (SF-295 CNS): 1470 nM
GI50 (SF-539 CNS): 267 nM
TGI (SF-539 CNS): 1150 nM
GI50 (SK-MEL-2 melanoma): 16 µM
TGI (SK-MEL-2 melanoma): 34.3 µM
GI50 (SK-MEL-28 melanoma): 1650 nM
TGI (SK-MEL-28 melanoma): 3.15 µM
GI50 (SK-MEL-5 melanoma): 966 nM
TGI (SK-MEL-5 melanoma): 12.8 µM
GI50 (SK-OV-3 ovarian): 520 nM
TGI (SK-OV-3 ovarian): 10.3 µM
GI50 (SN12C renal): 461 nM
TGI (SN12C renal): 1810 nM
GI50 (SNB-19 CNS): 408 nM
TGI (SNB-19 CNS): 1900 nM
GI50 (SNB-75 CNS): 630 nM
TGI (SNB-75 CNS): 5.05 µM
GI50 (SR leukemia): 214 nM
TGI (SR leukemia): > 100 µM
GI50 (SW-620 colon): 399 nM
TGI (SW-620 colon): 2150 nM
GI50 (T-47D breast): 576 nM
TGI (T-47D breast): 19.1 µM
GI50 (TK-10 renal): 16.2 µM
TGI (TK-10 renal): 30.6 µM
GI50 (U251 CNS): 358 nM
TGI (U251 CNS): 2200 nM
GI50 (UACC-257 melanoma): 12 µM
TGI (UACC-257 melanoma): 28.7 µM
GI50 (UACC-62 melanoma): 305 nM
TGI (UACC-62 melanoma): 9.23 µM
GI50 (UO-31 renal): 762 nM
TGI (UO-31 renal): 2140 nM
